test system: human PDE IV; assay: PDE IV inhibition, method of Torphy et al. (1992), [3H]cAMP, enzyme purified from human monocytes (U937-cells); assay type: biochemical; details: 1 μCi/ml [3H] cAMP, 40 mM Tris-HCl (pH 7.8), 3 mM MgCl2, incubation 30 min at 30° C.
Source text: Table 1 contains the pharmacological data obtained for the compounds of general formula (I). The data was obtained by the method of Torphy et al. (1992), J. Pharmacol. Exp. Ther. 263:1195.

IC50 [µM]	Structure (SMILES)
0.053	CCn1c(=O)c2[nH]c(C(C)(C)C)nc2n2nc(Cc3ccccc3)nc12 [No. 7]
0.074	CCCn1c(=O)c2[nH]c(C3CCCC3)nc2n2nc(Cc3ccccc3)nc12 [No. 12]
0.079	CCCn1c(=O)c2[nH]c(C3CCCC3)nc2n2nc(C(C)(C)C)nc12 [No. 13]
0.12	CCc1nc2c([nH]1)c(=O)n(CC)c1nc(CC3CCCCC3)nn21 [No. 18]
0.12	CCCc1nc2c([nH]1)c(=O)n(CCC)c1nc(C3CCCC3)nn21 [No. 19]
0.11	CCn1c(=O)c2[nH]c(C3CCCC3)nc2n2nc(COc3ccccc3)nc12 [No. 15]
0.11	CCCn1c(=O)c2[nH]c(N3CCOCC3)nc2n2nc(Cc3ccccc3)nc12 [No. 16]
0.055	CCCc1nc2n(CCC)c(=O)c3[nH]c(-c4ccccc4)nc3n2n1 [No. 8]
0.042	CCn1c(=O)c2[nH]c(C(C)(C)C)nc2n2nc(Cc3ccc(OC)cc3)nc12 [No. 3]
0.069	CCCc1nc2c([nH]1)c(=O)n(CCC)c1nc(Cc3ccccc3)nn21 [No. 10]
0.018	CCCn1c(=O)c2[nH]c(C3CCCC3)nc2n2nc(C(C)C)nc12 [No. 1]
0.039	CCCn1c(=O)c2[nH]c(C3CCCC3)nc2n2nc(CC)nc12 [No. 2]
0.081	CCCCc1nc2n(CCC)c(=O)c3[nH]c(C4CCCC4)nc3n2n1 [No. 14]
0.069	CCn1c(=O)c2[nH]c(C3CCCC3)nc2n2nc(Cn3cccc3)nc12 [No. 11]
0.046	CCn1c(=O)c2[nH]c(C3CCCC3)nc2n2nc(CCc3ccccc3)nc12 [No. 4]
0.049	CCCc1nc2n(CCC)c(=O)c3[nH]c(C4CCCC4)nc3n2n1 [No. 6]
0.11	CCn1c(=O)c2[nH]c(C3CCCC3)nc2n2nc(CC3CCCCC3)nc12 [No. 17]
0.057	CCn1c(=O)c2[nH]c(C3CCCC3)nc2n2nc(Cc3ccccc3)nc12 [No. 9]
